Peptide text beside a SMILES is read from it.
Experiment: MTT cell viability (cytotoxicity)
Assay type: cell-based
Conditions: human, Caco-2 cells (1 × 10^4), synthetic peptides 0.05 mg/mL, no TbOOH, mean ± SD of at least three experiments, read-out: Percentage of Cell Viability, None (c)

With `CC(C)C[C@H](NC(=O)[C@H](CC(C)C)NC(=O)[C@H](CC(N)=O)NC(=O)[C@H](CCC(=O)O)NC(=O)[C@H](CC(N)=O)NC(=O)[C@H](CC(C)C)NC(=O)[C@@H](NC(=O)[C@H](CCC(=O)O)NC(=O)[C@H](CCC(N)=O)NC(=O)[C@@H]1CCCN1C(=O)[C@H](CC(C)C)NC(=O)CNC(=O)[C@H](CCC(N)=O)NC(=O)[C@H](Cc1c[nH]cn1)NC(=O)[C@@H](N)CCCCN)C(C)C)C(=O)O` [K-15-L] (H-KHQGLPQEVLNENLL-OH) as the molecule, how does the viability at 24 h, 50 µg/mL read?
Its viability at 24 h, 50 µg/mL is 105 ± 14.5%.

Which viability at 24 h, 50 µg/mL does the source give for `CC[C@H](C)[C@H](NC(=O)CNC(=O)[C@H](Cc1ccc(O)cc1)NC(=O)[C@H](CO)NC(=O)[C@@H]1CCCN1C(=O)[C@H](Cc1ccc(O)cc1)NC(=O)[C@H](CCCNC(=N)N)NC(=O)[C@H](CO)NC(=O)[C@H](CC(C)C)NC(=O)[C@@H](NC(=O)[C@H](Cc1ccc(O)cc1)NC(=O)[C@@H](N)CCC(N)=O)C(C)C)C(=O)N[C@@H](CC(N)=O)C(=O)O` [Q-13-N] (H-QYVLSRYPSYGIN-OH) here?
The viability at 24 h, 50 µg/mL was 104 ± 6.64%.

Which viability at 24 h, 50 µg/mL does the source give for `CC[C@H](C)[C@H](N)C(=O)N[C@@H](CCC(N)=O)C(=O)N1CCC[C@H]1C(=O)N[C@@H](CCCCN)C(=O)N[C@H](C(=O)N[C@@H](CCCCN)C(=O)N[C@H](C(=O)N[C@H](C(=O)N1CCC[C@H]1C(=O)N[C@@H](Cc1ccc(O)cc1)C(=O)N[C@H](C(=O)N[C@@H](CCCNC(=N)N)C(=O)N[C@@H](Cc1ccc(O)cc1)C(=O)N[C@@H](CC(C)C)C(=O)O)C(C)C)[C@@H](C)CC)C(C)C)[C@@H](C)O` [I-14-L] (H-IQPKTKVIPYVRYL-OH) here?
The viability at 24 h, 50 µg/mL was 93 ± 13.6%.

Which viability at 24 h, 50 µg/mL does the source give for `CC[C@H](C)[C@H](NC(=O)[C@H](CCCCN)NC(=O)[C@H](CCCCN)NC(=O)[C@H](CC(C)C)NC(=O)[C@@H](N)Cc1ccccc1)C(=O)N[C@@H](CO)C(=O)N[C@@H](CCC(N)=O)C(=O)N[C@@H](CCCNC(=N)N)C(=O)N[C@@H](Cc1ccc(O)cc1)C(=O)N[C@@H](CCC(N)=O)C(=O)N[C@@H](CCCCN)C(=O)N[C@@H](Cc1ccccc1)C(=O)O` [F-12-F] (H-FLKKISQRYQKF-OH) here?
The viability at 24 h, 50 µg/mL was 97.7 ± 19.2%.

For `CC(C)C[C@H](NC(=O)[C@@H](NC(=O)[C@H](CCCCN)NC(=O)[C@H](CO)NC(=O)[C@H](CCC(N)=O)NC(=O)[C@@H](N)CO)C(C)C)C(=O)N1CCC[C@H]1C(=O)N[C@H](C(=O)N1CCC[C@H]1C(=O)N[C@@H](CCC(N)=O)C(=O)N[C@@H](CCCCN)C(=O)N[C@@H](C)C(=O)N[C@H](C(=O)N1CCC[C@H]1C(=O)N[C@@H](Cc1ccc(O)cc1)C(=O)N1CCC[C@H]1C(=O)N[C@@H](CCC(N)=O)C(=O)O)C(C)C)C(C)C` [S-17-Q] (H-SQSKVLPVPQKAVPYPQ-OH), which viability at 24 h, 50 µg/mL is on record?
The viability at 24 h, 50 µg/mL was 101 ± 7.46%.

With `CC[C@H](C)[C@H](NC(=O)[C@@H](NC(=O)[C@H](CC(N)=O)NC(=O)[C@@H](NC(=O)[C@@H](NC(=O)[C@@H]1CCCN1C(=O)[C@@H](NC(=O)[C@H](CCC(=O)O)NC(=O)[C@@H](NC(=O)[C@H](CCCCN)NC(=O)[C@@H](N)CC(=O)O)[C@@H](C)O)[C@@H](C)CC)[C@@H](C)O)[C@@H](C)CC)[C@@H](C)O)C(=O)N[C@@H](C)C(=O)N[C@@H](CO)C(=O)NCC(=O)N[C@@H](CCC(=O)O)C(=O)N1CCC[C@H]1C(=O)N[C@H](C(=O)O)[C@@H](C)O` [D-17-T] (H-DKTEIPTINTIASGEPT-OH) as the molecule, how does the viability at 24 h, 50 µg/mL read?
Its viability at 24 h, 50 µg/mL is 104 ± 5.62%.

For `CC[C@H](C)[C@H](NC(=O)[C@H](CCC(=O)O)NC(=O)CNC(=O)[C@@H]1CCCN1C(=O)[C@@H](NC(=O)[C@@H](N)CC(N)=O)C(C)C)C(=O)N[C@H](C(=O)N[C@@H](CCC(=O)O)C(=O)N[C@@H](CO)C(=O)N[C@@H](CC(C)C)C(=O)O)C(C)C` [N-10-L] (H-NVPGEIVESL-OH), which viability at 24 h, 50 µg/mL is on record?
Its viability at 24 h, 50 µg/mL is 120 ± 15.7%.

With `CC(C)C[C@H](NC(=O)[C@H](Cc1ccccc1)NC(=O)[C@@H]1CCCN1C(=O)[C@@H]1CCCN1C(=O)[C@@H](NC(=O)[C@@H](N)C(C)C)C(C)C)C(=O)N[C@@H](CCC(N)=O)C(=O)N1CCC[C@H]1C(=O)N[C@@H](CCC(=O)O)C(=O)O` [V-9-E] (H-VVPPFLQPE-OH) as the molecule, how does the viability at 24 h, 50 µg/mL read?
Its viability at 24 h, 50 µg/mL is 107 ± 8.02%.

Which viability at 24 h, 50 µg/mL does the source give for `CC[C@H](C)[C@H](NC(=O)[C@@H]1CCCN1C(=O)[C@@H](NC(=O)[C@H](Cc1ccc(O)cc1)NC(=O)[C@@H](N)CCCCN)[C@@H](C)CC)C(=O)N[C@@H](CCC(N)=O)C(=O)N[C@@H](Cc1ccc(O)cc1)C(=O)N[C@H](C(=O)N[C@@H](CC(C)C)C(=O)N[C@@H](CO)C(=O)O)C(C)C` [K-10-S] (H-KYIPIQYVLS-OH) here?
Its viability at 24 h, 50 µg/mL is 97.3 ± 6.69%.

With `CC(C)C[C@H](NC(=O)[C@H](Cc1ccc(O)cc1)NC(=O)[C@H](CCC(N)=O)NC(=O)[C@@H]1CCCN1C(=O)[C@H](CC(C)C)NC(=O)[C@H](C)N)C(=O)N[C@@H](CCCCN)C(=O)N[C@H](C(=O)N[C@H](C(=O)N[C@@H](Cc1ccc(O)cc1)C(=O)N[C@@H](CCC(N)=O)C(=O)N[C@@H](Cc1c[nH]cn1)C(=O)N[C@@H](CCC(N)=O)C(=O)N[C@@H](CCCCN)C(=O)O)C(C)C)[C@@H](C)O` [A-14-K] (H-ALPQYLKTVYQHQK-OH) as the molecule, how does the viability at 24 h, 50 µg/mL read?
Its viability at 24 h, 50 µg/mL is 84.4 ± 9.69%.

Which viability at 24 h, 50 µg/mL does the source give for `CC[C@H](C)[C@H](NC(=O)[C@H](CCC(=O)O)NC(=O)[C@@H]1CCCN1C(=O)[C@@H]1CCCN1C(=O)[C@H](CO)NC(=O)[C@H](CCC(=O)O)NC(=O)[C@@H](NC(=O)[C@@H](N)C(C)C)[C@@H](C)CC)C(=O)N[C@@H](CC(N)=O)C(=O)N[C@H](C(=O)N[C@H](C(=O)N[C@@H](CCC(N)=O)C(=O)O)C(C)C)[C@@H](C)O` [V-12-Q] (H-VIESPPEINTVQ-OH) here?
Its viability at 24 h, 50 µg/mL is 113 ± 3.52%.

Which viability at 24 h, 50 µg/mL does the source give for `CC[C@H](C)[C@H](NC(=O)[C@H](CCC(N)=O)NC(=O)[C@H](C)NC(=O)[C@@H]1CCCN1C(=O)[C@H](CO)NC(=O)[C@H](CCCNC(=N)N)NC(=O)[C@@H](NC(=O)[C@H](C)N)C(C)C)C(=O)N[C@@H](CC(C)C)C(=O)N[C@@H](CCC(N)=O)C(=O)N[C@@H](Cc1c[nH]c2ccccc12)C(=O)N[C@@H](CCC(N)=O)C(=O)O` [A-12-Q] (H-AVRSPAQILQWQ-OH) here?
Its viability at 24 h, 50 µg/mL is 102 ± 4.69%.

With `CC(C)[C@H](NC(=O)[C@@H]1CCCN1C(=O)[C@H](Cc1ccc(O)cc1)NC(=O)[C@H](CCCCN)NC(=O)[C@@H]1CCCN1C(=O)[C@@H](N)Cc1ccccc1)C(=O)N[C@@H](CCC(=O)O)C(=O)N1CCC[C@H]1C(=O)N[C@@H](Cc1ccccc1)C(=O)O` [F-9-F] (H-FPKYPVEPF-OH) as the molecule, how does the viability at 24 h, 50 µg/mL read?
Its viability at 24 h, 50 µg/mL is 109 ± 12.7%.

For `CC[C@H](C)[C@H](NC(=O)[C@H](CCCCN)NC(=O)[C@@H](NC(=O)[C@@H](NC(=O)[C@@H]1CCCN1C(=O)[C@@H](NC(=O)CNC(=O)[C@@H](NC(=O)[C@H](CC(=O)O)NC(=O)[C@H](CC(=O)O)NC(=O)[C@H](CCCCN)NC(=O)[C@@H](N)CCC(=O)O)[C@@H](C)O)[C@@H](C)O)[C@@H](C)CC)[C@@H](C)O)C(=O)N[C@@H](CCC(=O)O)C(=O)N[C@@H](CC(C)C)C(=O)N[C@H](C(=O)N1CCC[C@H]1C(=O)N[C@@H](CO)C(=O)N[C@@H](Cc1c[nH]cn1)C(=O)O)C(C)C` [E-18-H] (H-EKDDTGTPITKIELVPSH-OH), which viability at 24 h, 50 µg/mL is on record?
The viability at 24 h, 50 µg/mL was 104 ± 5.01%.

For `CC[C@H](C)[C@H](N)C(=O)N[C@@H](CC(N)=O)C(=O)N[C@@H](CC(N)=O)C(=O)N[C@@H](CCC(N)=O)C(=O)N[C@@H](Cc1ccccc1)C(=O)N[C@@H](CC(C)C)C(=O)N1CCC[C@H]1C(=O)N[C@@H](Cc1ccc(O)cc1)C(=O)N1CCC[C@H]1C(=O)N[C@@H](Cc1ccc(O)cc1)C(=O)N[C@@H](Cc1ccc(O)cc1)C(=O)N[C@@H](C)C(=O)N[C@@H](CCCCN)C(=O)N1CCC[C@H]1C(=O)N[C@@H](C)C(=O)O` [I-15-A] (H-INNQFLPYPYYAKPA-OH), which viability at 24 h, 50 µg/mL is on record?
Its viability at 24 h, 50 µg/mL is 104 ± 5.12%.

— paper PMC7070694, “Identification of New Peptides from Fermented Milk Showing Antioxidant Properties: Mechanism of Action” (Antioxidants, 2020)
